Data: ChEMBL document CHEMBL1201862, “PubChem BioAssay data set” (2004)
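Dose response: 5 concentrations. Exposure: 48 h. Format: 96-well plates. Endpoint: linear interpolation; highest concentration if not reached. Here, GI50 denotes the concentration required for 50% inhibition of growth.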 Calls of active or inactive are those of the source. Rule as the data show it: active = GI50 up to about 1.1 µM and inactive = higher.

Legend:
Experiment in all cases: DTP human tumour cell line panel, 48 h
DU-145 = test system: DU-145
UO-31 = test system: UO-31
U-251 = test system: U-251
NCI-H522 = test system: NCI-H522
KM12 = test system: KM12
HT-29 = test system: HT-29
SK-MEL-2 = test system: SK-MEL-2
M14 = test system: M14
MDA-MB-435 = test system: MDA-MB-435
HOP-92 = test system: HOP-92
UACC-62 = test system: UACC-62
BT-549 = test system: BT-549
K562 = test system: K562
OVCAR-3 = test system: OVCAR-3
786-0 = test system: 786-0
OVCAR-4 = test system: OVCAR-4
SW-620 = test system: SW-620
SF-539 = test system: SF-539
NCI-H226 = test system: NCI-H226
A498 = test system: A498
SK-MEL-28 = test system: SK-MEL-28
SNB-75 = test system: SNB-75
MDA-N = test system: MDA-N
SF-295 = test system: SF-295
HCT-15 = test system: HCT-15
LOX IMVI = test system: LOX IMVI
IGROV-1 = test system: IGROV-1
NCI-H23 = test system: NCI-H23
A549 = test system: A549
ACHN = test system: ACHN
NCI-H460 = test system: NCI-H460
Malme-3M = test system: Malme-3M
SN12C = test system: SN12C
RXF 393 = test system: RXF 393
UACC-257 = test system: UACC-257
CCRF-CEM = test system: CCRF-CEM
PC-3 = test system: PC-3
Hs-578T = test system: Hs-578T
SR = test system: SR
SF-268 = test system: SF-268
SK-MEL-5 = test system: SK-MEL-5
OVCAR-8 = test system: OVCAR-8
HL-60 = test system: HL-60
MOLT-4 = test system: MOLT-4
COLO 205 = test system: COLO 205
T47D = test system: T47D
HCC 2998 = test system: HCC 2998
HCT-116 = test system: HCT-116
EKVX = test system: EKVX
SNB-19 = test system: SNB-19
NCI/ADR-RES = test system: NCI/ADR-RES
CAKI-1 = test system: CAKI-1
SK-OV-3 = test system: SK-OV-3
OVCAR-5 = test system: OVCAR-5
TK-10 = test system: TK-10
MDA-MB-231 = test system: MDA-MB-231
HOP-62 = test system: HOP-62
RPMI-8226 = test system: RPMI-8226
MCF7 = test system: MCF7

Q: Which results are given for `Nc1ccn(C2OC(COP(=O)(O)OCC3OC(n4cc(F)c(=O)[nH]c4=O)CC3O)C(O)C2O)c(=O)n1` (stereo not drawn)?
A: GI50 (DU-145): 0.0828 µM (active); GI50 (UO-31): 0.339 µM (active); GI50 (U-251): 1.77 µM (inactive); GI50 (NCI-H522): 14.6 µM (inactive); GI50 (KM12): > 100 µM (inactive); GI50 (HT-29): 4.3 µM (inactive); GI50 (SK-MEL-2): > 100 µM (inactive); GI50 (M14): 0.183 µM (active); GI50 (MDA-MB-435): 1.58 µM (inactive); GI50 (HOP-92): 38 µM (inactive); GI50 (UACC-62): 0.0925 µM (active); GI50 (BT-549): > 37.6 µM (inactive); GI50 (K562): > 100 µM (inactive); GI50 (OVCAR-3): > 100 µM (inactive); GI50 (786-0): 1.33 µM (inactive); GI50 (OVCAR-4): > 100 µM (inactive); GI50 (SW-620): > 100 µM (inactive); GI50 (SF-539): < 0.0439 µM (active); GI50 (NCI-H226): > 22.9 µM (inactive); GI50 (A498): 0.225 µM (active); GI50 (SK-MEL-28): > 25.5 µM (inactive); GI50 (SNB-75): > 48.3 µM (inactive); GI50 (MDA-N): 26.4 µM (inactive); GI50 (SF-295): 0.0453 µM (active); GI50 (HCT-15): 5.75 µM; GI50 (LOX IMVI): 0.0353 µM (active); GI50 (IGROV-1): > 34 µM (inactive); GI50 (NCI-H23): 0.314 µM (active); GI50 (A549): 0.0244 µM (active); GI50 (ACHN): 0.0447 µM (active); GI50 (NCI-H460): < 0.01 µM (active); GI50 (Malme-3M): 3.07 µM (inactive); GI50 (SN12C): 3.05 µM (inactive); GI50 (RXF 393): > 56.8 µM (inactive); GI50 (UACC-257): > 21.5 µM (inactive); GI50 (CCRF-CEM): 0.0161 µM (active); GI50 (PC-3): > 100 µM (inactive); GI50 (Hs-578T): > 100 µM (inactive); GI50 (SR): < 0.01 µM (active); GI50 (SF-268): < 0.01 µM (active); GI50 (SK-MEL-5): 0.605 µM (active); GI50 (OVCAR-8): 1.37 µM (inactive); GI50 (HL-60): 0.237 µM (active); GI50 (MOLT-4): 0.0575 µM (active); GI50 (COLO 205): 4.68 µM (inactive); GI50 (T47D): 4.47 µM (inactive); GI50 (HCC 2998): 87.9 µM (inactive); GI50 (HCT-116): 0.687 µM (active); GI50 (EKVX): > 100 µM (inactive); GI50 (SNB-19): 0.585 µM (active); GI50 (NCI/ADR-RES): 9.23 µM (inactive); GI50 (CAKI-1): 0.508 µM (active); GI50 (SK-OV-3): 26.7 µM (inactive); GI50 (OVCAR-5): > 100 µM (inactive)

Q: How did the GI50 (DU-145) turn out when `CC(=O)CC(=O)N1CCSC1=S` was run?
A: > 10 µM (inactive)

Q: What about the GI50 (UO-31) of the same compound?
A: > 10 µM (inactive)

Q: And the GI50 (U-251)?
A: > 10 µM (inactive)

Q: What about the GI50 (KM12) of the same compound?
A: > 10 µM (inactive)

Q: And the GI50 (HT-29)?
A: > 10 µM (inactive)

Q: And the GI50 (SK-MEL-2)?
A: > 10 µM (inactive)

Q: What about the GI50 (M14) of the same compound?
A: > 10 µM (inactive)

Q: And the GI50 (MDA-MB-435)?
A: > 10 µM (inactive)

Q: And the GI50 (TK-10)?
A: > 10 µM (inactive)

Q: And the GI50 (HOP-92)?
A: > 10 µM (inactive)

Q: And the GI50 (UACC-62)?
A: > 10 µM (inactive)

Q: What about the GI50 (BT-549) of the same compound?
A: > 10 µM (inactive)

Q: What about the GI50 (K562) of the same compound?
A: > 10 µM (inactive)

Q: And the GI50 (MDA-MB-231)?
A: > 10 µM (inactive)

Q: And the GI50 (HOP-62)?
A: > 10 µM (inactive)

Q: What about the GI50 (OVCAR-3) of the same compound?
A: > 10 µM (inactive)

Q: And the GI50 (786-0)?
A: > 10 µM (inactive)

Q: And the GI50 (SW-620)?
A: > 10 µM (inactive)

Q: What about the GI50 (SF-539) of the same compound?
A: > 10 µM (inactive)

Q: What about the GI50 (NCI-H226) of the same compound?
A: > 10 µM (inactive)

Q: And the GI50 (A498)?
A: > 10 µM (inactive)

Q: What about the GI50 (SK-MEL-28) of the same compound?
A: > 10 µM (inactive)

Q: What about the GI50 (RPMI-8226) of the same compound?
A: > 10 µM (inactive)

Q: What about the GI50 (SNB-75) of the same compound?
A: > 10 µM (inactive)

Q: And the GI50 (MDA-N)?
A: > 10 µM (inactive)

Q: What about the GI50 (MCF7) of the same compound?
A: > 10 µM (inactive)

Q: And the GI50 (SF-295)?
A: > 10 µM (inactive)

Q: What about the GI50 (HCT-15) of the same compound?
A: > 10 µM

Q: And the GI50 (LOX IMVI)?
A: > 10 µM (inactive)

Q: What about the GI50 (IGROV-1) of the same compound?
A: > 10 µM (inactive)

Q: What about the GI50 (NCI-H23) of the same compound?
A: > 10 µM (inactive)

Q: What about the GI50 (A549) of the same compound?
A: > 10 µM (inactive)

Q: And the GI50 (ACHN)?
A: > 10 µM (inactive)

Q: And the GI50 (NCI-H460)?
A: > 10 µM (inactive)

Q: What about the GI50 (Malme-3M) of the same compound?
A: > 10 µM (inactive)

Q: What about the GI50 (SN12C) of the same compound?
A: > 10 µM (inactive)

Q: And the GI50 (RXF 393)?
A: > 10 µM (inactive)

Q: And the GI50 (UACC-257)?
A: > 10 µM (inactive)

Q: What about the GI50 (CCRF-CEM) of the same compound?
A: > 10 µM (inactive)

Q: And the GI50 (PC-3)?
A: > 10 µM (inactive)

Q: And the GI50 (Hs-578T)?
A: > 10 µM (inactive)

Q: What about the GI50 (SR) of the same compound?
A: > 10 µM (inactive)

Q: And the GI50 (SF-268)?
A: > 10 µM (inactive)

Q: What about the GI50 (SK-MEL-5) of the same compound?
A: > 10 µM (inactive)

Q: And the GI50 (OVCAR-8)?
A: > 10 µM (inactive)

Q: And the GI50 (HL-60)?
A: > 10 µM (inactive)

Q: What about the GI50 (MOLT-4) of the same compound?
A: > 10 µM (inactive)

Q: What about the GI50 (T47D) of the same compound?
A: 6.67 µM (inactive)

Q: And the GI50 (HCC 2998)?
A: > 10 µM (inactive)

Q: What about the GI50 (HCT-116) of the same compound?
A: > 10 µM (inactive)

Q: What about the GI50 (EKVX) of the same compound?
A: > 10 µM (inactive)

Q: What about the GI50 (SNB-19) of the same compound?
A: > 10 µM (inactive)

Q: What about the GI50 (SK-OV-3) of the same compound?
A: > 10 µM (inactive)

Q: And the GI50 (OVCAR-5)?
A: > 10 µM (inactive)
